Legend:
Assay in all cases: CTG-3D luminescence at 96 h relative to day-0 seeding control (ratio to day 0); higher = more growth / less cytotoxicity; PDxO 3D drug screen (set 2), 96 h, CTG-3D normalised to day-0 seeding control.
HCI-005.E2 = system: HCI-005.E2 (organoid from a breast cancer xenograft with a HER2-positive history)
HCI-017.E2 = system: HCI-017.E2 (organoid from an ER-positive breast cancer xenograft)
HCI-019 = system: HCI-019 (organoid from a triple-negative breast cancer xenograft)
HCI-001 = system: HCI-001 (organoid from a triple-negative breast cancer xenograft)

CO[C@H]1C[C@@H]2CC[C@@H](C)[C@@](O)(O2)C(=O)C(=O)N2CCCC[C@H]2C(=O)O[C@H]([C@H](C)C[C@@H]2CC[C@@H](O)[C@H](OC)C2)CC(=O)[C@H](C)/C=C(\C)[C@@H](O)[C@@H](OC)C(=O)[C@H](C)C[C@H](C)/C=C/C=C/C=C/1C [rapamycin]
CTG-3D luminescence at 96 h
Conditions | 12.5 pM | 0.00025 µM | 0.005 µM | 0.1 µM | 1 µM | 10 µM | 100 µM | 625 fM
HCI-005.E2 | 1.21 | 1.28 | 1.46 | 1.72 | 1.73 | 1.49 | 0.0167 | 1.52
HCI-017.E2 | 1.41 | 1.88 | 1.61 | 1.58 | 1.56 | 1.63 | 0.0217 | 1.583

CTG-3D luminescence at 96 h
Conditions | 12.5 pM | 0.00025 µM | 0.005 µM | 0.1 µM | 1 µM | 10 µM | 100 µM | 625 fM
HCI-001, days in culture: 365 | 2.01 | 1.51 | 1.8 | 1.8 | 1.28 | 1.67 | – | –
HCI-001, days in culture: 397 | 1.46 | 1.71 | 1.53 | 1.84 | 1.22 | – | – | –
HCI-001, days in culture: 401 | 1.07 | 1.45 | 1.1 | 1.26 | 0.98 | – | – | –
HCI-017.E2, days in culture: 85 | 2.2 | 1.67 | 1.47 | 1.51 | 1.34 | 1.31 | 0.0123 | 2.57
HCI-019, days in culture: 173 | 1.07 | 0.905 | 0.844 | 1.93 | 1.36 | 1.43 | 0.0117 | 1.08
HCI-019, days in culture: 194 | 1.66 | 1.04 | 1.1 | 0.588 | 1.28 | 1.54 | 0.0107 | 2.69
HCI-019, days in culture: 215 | 1.12 | 0.5 | 0.486 | 1.15 | 0.713 | 0.457 | 0.00468 | 1.43
